{"source": "the supplement of paper PMC10307832", "assay_in_all_cases": "relative viability (nuclei count vs DMSO), 5 days (fraction); higher = more cells survive", "key": {"[1]": {"tested_on": "HOP-62", "in_short": "(§1)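 Relative viability divides the nuclei count in treated wells by that in vehicle wells. Lung cancer cell lines were seeded in 1536-well plates, dosed by pin tool the next day, and fixed and stained after 5 days in one step with final 0.05% Triton X-100, 1% formaldehyde and 1 ug/ml Hoechst. Dosing was a single drug or a fixed anchor-drug dose plus five library-drug doses (not always all listed) in √10 steps, and values are medians of duplicate plates imaged at 4×.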"}, "[2]": {"tested_on": "NCI-H647", "in_short": "as §1"}, "[3]": {"tested_on": "LCLC-103H", "in_short": "as §1"}, "[4]": {"tested_on": "NCI-H2405", "in_short": "as §1"}, "[5]": {"tested_on": "NCI-H1437", "in_short": "as §1"}, "[6]": {"tested_on": "BEN", "in_short": "as §1"}, "[7]": {"tested_on": "HCC-44", "in_short": "as §1"}, "[8]": {"tested_on": "LCLC-97TM1", "in_short": "as §1"}, "[9]": {"tested_on": "NCI-H727", "in_short": "as §1"}, "[10]": {"tested_on": "HCC-827", "in_short": "as §1"}, "[11]": {"tested_on": "RERF-LC-KJ", "in_short": "as §1"}, "[12]": {"tested_on": "CAL-12T", "in_short": "as §1"}, "[13]": {"tested_on": "LXF-289", "in_short": "as §1"}, "[14]": {"tested_on": "201T", "in_short": "as §1"}, "[15]": {"tested_on": "NCI-H2228", "in_short": "as §1"}, "[16]": {"tested_on": "SK-LU-1", "in_short": "as §1"}, "[17]": {"tested_on": "NCI-H322M", "in_short": "as §1"}, "[18]": {"tested_on": "NCI-H3122", "in_short": "as §1"}, "[19]": {"tested_on": "NCI-H2087", "in_short": "as §1"}, "[20]": {"tested_on": "NCI-H1650", "in_short": "as §1"}}, "data": [{"smiles": "C=C1C(=O)O[C@@H](CCCCCCCC)[C@@H]1C(=O)O", "note": "[C-75] + CC(C)C[C@H](NC(=O)[C@H](Cc1ccccc1)NC(=O)c1cnccn1)B(O)O [Bortezomib] (partner 0.002 µM)", "values": [{"measurement": "relative viability", "setting": "[1]; first compound 0.08 µM", "value": 0.651}, {"measurement": "relative viability", "setting": "[1]; first compound 0.253 µM", "value": 0.676}, {"measurement": "relative viability", "setting": "[1]; first compound 0.8 µM", "value": 0.89}, {"measurement": "relative viability", "setting": "[1]; first compound 2.53 µM", "value": 0.778}, {"measurement": "relative viability", "setting": "[1]; first compound 8 µM", "value": 0.916}, {"measurement": "relative viability", "setting": "[2]; first compound 0.08 µM", "value": 0.836}, {"measurement": "relative viability", "setting": "[2]; first compound 0.253 µM", "value": 1.1}, {"measurement": "relative viability", "setting": "[2]; first compound 2.53 µM", "value": 0.869}, {"measurement": "relative viability", "setting": "[2]; first compound 8 µM", "value": 0.809}, {"measurement": "relative viability", "setting": "[3]; first compound 0.08 µM", "value": 1.23}, {"measurement": "relative viability", "setting": "[3]; first compound 0.253 µM", "value": 0.907}, {"measurement": "relative viability", "setting": "[3]; first compound 0.8 µM", "value": 1.06}, {"measurement": "relative viability", "setting": "[3]; first compound 2.53 µM", "value": 0.811}, {"measurement": "relative viability", "setting": "[3]; first compound 8 µM", "value": 1.18}, {"measurement": "relative viability", "setting": "[4]; first compound 0.08 µM", "value": 0.995}, {"measurement": "relative viability", "setting": "[4]; first compound 0.253 µM", "value": 0.773}, {"measurement": "relative viability", "setting": "[4]; first compound 0.8 µM", "value": 0.974}, {"measurement": "relative viability", "setting": "[4]; first compound 2.53 µM", "value": 0.673}, {"measurement": "relative viability", "setting": "[4]; first compound 8 µM", "value": 0.971}, {"measurement": "relative viability", "setting": "[5]; first compound 0.08 µM", "value": 0.572}, {"measurement": "relative viability", "setting": "[5]; first compound 0.253 µM", "value": 0.546}, {"measurement": "relative viability", "setting": "[5]; first compound 0.8 µM", "value": 0.483}, {"measurement": "relative viability", "setting": "[5]; first compound 2.53 µM", "value": 0.546}, {"measurement": "relative viability", "setting": "[5]; first compound 8 µM", "value": 0.455}, {"measurement": "relative viability", "setting": "[6]; first compound 0.08 µM", "value": 0.847}, {"measurement": "relative viability", "setting": "[6]; first compound 0.253 µM", "value": 0.868}, {"measurement": "relative viability", "setting": "[6]; first compound 0.8 µM", "value": 0.666}, {"measurement": "relative viability", "setting": "[6]; first compound 2.53 µM", "value": 0.639}, {"measurement": "relative viability", "setting": "[6]; first compound 8 µM", "value": 0.653}, {"measurement": "relative viability", "setting": "[7]; first compound 0.08 µM", "value": 0.885}, {"measurement": "relative viability", "setting": "[7]; first compound 0.253 µM", "value": 0.863}, {"measurement": "relative viability", "setting": "[7]; first compound 0.8 µM", "value": 0.857}, {"measurement": "relative viability", "setting": "[7]; first compound 2.53 µM", "value": 0.714}, {"measurement": "relative viability", "setting": "[7]; first compound 8 µM", "value": 0.89}, {"measurement": "relative viability", "setting": "[8]; first compound 0.08 µM", "value": 0.636}, {"measurement": "relative viability", "setting": "[8]; first compound 0.253 µM", "value": 0.595}, {"measurement": "relative viability", "setting": "[8]; first compound 0.8 µM", "value": 0.222}, {"measurement": "relative viability", "setting": "[8]; first compound 2.53 µM", "value": 0.477}, {"measurement": "relative viability", "setting": "[8]; first compound 8 µM", "value": 0.218}, {"measurement": "relative viability", "setting": "[9]; first compound 0.08 µM", "value": 0.773}, {"measurement": "relative viability", "setting": "[9]; first compound 0.253 µM", "value": 1.32}, {"measurement": "relative viability", "setting": "[9]; first compound 0.8 µM", "value": 0.614}, {"measurement": "relative viability", "setting": "[9]; first compound 2.53 µM", "value": 0.582}, {"measurement": "relative viability", "setting": "[9]; first compound 8 µM", "value": 0.99}, {"measurement": "relative viability", "setting": "[10]; first compound 0.08 µM", "value": 1.09}, {"measurement": "relative viability", "setting": "[10]; first compound 0.253 µM", "value": 0.995}, {"measurement": "relative viability", "setting": "[10]; first compound 0.8 µM", "value": 0.972}, {"measurement": "relative viability", "setting": "[10]; first compound 2.53 µM", "value": 1.01}, {"measurement": "relative viability", "setting": "[10]; first compound 8 µM", "value": 1.08}, {"measurement": "relative viability", "setting": "[11]; first compound 0.08 µM", "value": 1.17}, {"measurement": "relative viability", "setting": "[11]; first compound 0.253 µM", "value": 1.09}, {"measurement": "relative viability", "setting": "[11]; first compound 0.8 µM", "value": 1.21}, {"measurement": "relative viability", "setting": "[11]; first compound 2.53 µM", "value": 1.09}, {"measurement": "relative viability", "setting": "[11]; first compound 8 µM", "value": 1.31}, {"measurement": "relative viability", "setting": "[12]; first compound 0.08 µM", "value": 0.949}, {"measurement": "relative viability", "setting": "[12]; first compound 0.253 µM", "value": 0.967}, {"measurement": "relative viability", "setting": "[12]; first compound 0.8 µM", "value": 0.758}, {"measurement": "relative viability", "setting": "[12]; first compound 2.53 µM", "value": 0.946}, {"measurement": "relative viability", "setting": "[12]; first compound 8 µM", "value": 0.928}, {"measurement": "relative viability", "setting": "[13]; first compound 0.08 µM", "value": 0.945}, {"measurement": "relative viability", "setting": "[13]; first compound 0.253 µM", "value": 0.984}, {"measurement": "relative viability", "setting": "[13]; first compound 0.8 µM", "value": 0.889}, {"measurement": "relative viability", "setting": "[13]; first compound 2.53 µM", "value": 0.951}, {"measurement": "relative viability", "setting": "[13]; first compound 8 µM", "value": 0.989}, {"measurement": "relative viability", "setting": "[14]; first compound 0.08 µM", "value": 1.07}, {"measurement": "relative viability", "setting": "[14]; first compound 0.253 µM", "value": 1.24}, {"measurement": "relative viability", "setting": "[14]; first compound 0.8 µM", "value": 1.08}, {"measurement": "relative viability", "setting": "[14]; first compound 2.53 µM", "value": 1.15}, {"measurement": "relative viability", "setting": "[14]; first compound 8 µM", "value": 1.08}, {"measurement": "relative viability", "setting": "[15]; first compound 0.08 µM", "value": 0.836}, {"measurement": "relative viability", "setting": "[15]; first compound 0.253 µM", "value": 1.43}, {"measurement": "relative viability", "setting": "[15]; first compound 0.8 µM", "value": 0.8}, {"measurement": "relative viability", "setting": "[15]; first compound 2.53 µM", "value": 0.729}, {"measurement": "relative viability", "setting": "[15]; first compound 8 µM", "value": 0.746}, {"measurement": "relative viability", "setting": "[16]; first compound 0.08 µM", "value": 1.24}, {"measurement": "relative viability", "setting": "[16]; first compound 0.253 µM", "value": 1.11}, {"measurement": "relative viability", "setting": "[16]; first compound 0.8 µM", "value": 0.836}, {"measurement": "relative viability", "setting": "[16]; first compound 2.53 µM", "value": 0.847}, {"measurement": "relative viability", "setting": "[16]; first compound 8 µM", "value": 0.658}, {"measurement": "relative viability", "setting": "[17]; first compound 0.08 µM", "value": 1.36}, {"measurement": "relative viability", "setting": "[17]; first compound 0.253 µM", "value": 1.45}, {"measurement": "relative viability", "setting": "[17]; first compound 0.8 µM", "value": 1.21}, {"measurement": "relative viability", "setting": "[17]; first compound 2.53 µM", "value": 1.09}, {"measurement": "relative viability", "setting": "[17]; first compound 8 µM", "value": 1.25}, {"measurement": "relative viability", "setting": "[18]; first compound 0.08 µM", "value": 1.01}, {"measurement": "relative viability", "setting": "[18]; first compound 0.253 µM", "value": 0.987}, {"measurement": "relative viability", "setting": "[18]; first compound 0.8 µM", "value": 0.989}, {"measurement": "relative viability", "setting": "[18]; first compound 8 µM", "value": 1.04}, {"measurement": "relative viability", "setting": "[19]; first compound 0.08 µM", "value": 0.724}, {"measurement": "relative viability", "setting": "[19]; first compound 0.253 µM", "value": 0.863}, {"measurement": "relative viability", "setting": "[19]; first compound 0.8 µM", "value": 0.743}, {"measurement": "relative viability", "setting": "[19]; first compound 2.53 µM", "value": 0.396}, {"measurement": "relative viability", "setting": "[19]; first compound 8 µM", "value": 0.581}, {"measurement": "relative viability", "setting": "[20]; first compound 0.08 µM", "value": 0.223}, {"measurement": "relative viability", "setting": "[20]; first compound 0.253 µM", "value": 0.212}, {"measurement": "relative viability", "setting": "[20]; first compound 0.8 µM", "value": 0.198}, {"measurement": "relative viability", "setting": "[20]; first compound 2.53 µM", "value": 0.158}, {"measurement": "relative viability", "setting": "[20]; first compound 8 µM", "value": 0.187}]}]}
